Results reported in patent US20240226026A1, “BRANCHED TAIL LIPID COMPOUNDS AND COMPOSITIONS FOR INTRACELLULAR DELIVERY OF THERAPEUTIC AGENTS” (ModernaTX, Inc., priority 2021, published 2024).

Columns and labels:
CD-1 mice = assay: Expression of hEPO induced by LNPs (mRNA encoding hEPO) administered to mice; assay type: in vivo; conditions: Table 4a, serum, 6 h after intravenous injection; for Avg. hEPO Concentration (mIU/mL)* ± Avg. SD: ELLA Simple Plex Assay
Method in brief: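 LNPs of DSPC, cholesterol, PEG lipid and test ionizable lipid carrying hEPO mRNA were given intravenously. Serum hEPO was measured 6 h post-injection by ELLA Simple Plex immunoassay calibrated to the 2nd IRP WHO standard.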

[1] = Lipid nanoparticle surface hydrophobicity by Generalized Polarization by Laurdan (N-GP); assay type: physicochemical; conditions: for Lipid nanoparticle surface hydrophobicity (N-GP*): Table 2a, Laurdan, higher N-GP indicates a less polar surface; for LNP surface hydrophobicity (N-GP*): Table 2b, nanoparticles comprising the lipid
Excerpt: Surface hydrophobicity of nanoparticles of the disclosure can be measured by Generalized Polarization by Laurdan (GPL). In this method, Laurdan, a fluorescent aminonaphthalene ketone lipid, is post-inserted into the nanoparticle surface and the fluorescence spectrum of Laurdan is collected to determine the normalized Generalized Polarization (N-GP). In some embodiments, nanoparticles formulated with lipids of the disclosure have a surface hydrophobicity expressed as N-GP of between about 0.5 and about 1.5. For example, in some embodiments, nanoparticles formulated with lipids of the disclosure have a surface hydrophobicity expressed as N-GP of about 0.5, about 0.6, about 0.7, about 0.8, about 0.9, about 1.0, about 1.1, about 1.2, about 1.3, about 1.4, or about 1.5. In some embodiments, nanoparticles formulated with lipids of the disclosure have a surface hydrophobicity expressed as N-GP of about 1.0 or about 1.1.

[2] = Encapsulation efficiency (% EE) of lipid nanoparticles; assay type: physicochemical; conditions: nanoparticles comprising the lipid
Procedure: For nanoparticle compositions including an RNA, a QUANT-IT™ RIBOGREEN® RNA assay (Invitrogen Corporation Carlsbad, CA) can be used to evaluate the encapsulation of an RNA by the nanoparticle composition. The samples are diluted to a concentration of approximately 5 μg/mL in a TE buffer solution (10 mM Tris-HCl, 1 mM EDTA, pH 7.5). 50 μL of the diluted samples are transferred to a polystyrene 96 well plate and either 50 μL of TE buffer or 50 μL of a 2% Triton X-100 solution is added to the wells. The plate is incubated at a temperature of 37° C. for 15 minutes. The RIBOGREEN® reagent is diluted 1:100 in TE buffer, and 100 μL of this solution is added to each well. The fluorescence intensity can be measured using a fluorescence plate reader (Wallac Victor 1420 Multilablel Counter; Perkin Elmer, Waltham, MA) at an excitation wavelength of, for example, about 480 nm and an emission wavelength of, for example, about 520 nm. The fluorescence values of the reagent blank are subtracted from that of each of the samples and the percentage of free RNA is determined by dividing the fluorescence intensity of the intact sample (without addition of Triton X-100) by the fluorescence value of the disrupted sample (caused by the addition of Triton X-100).
The efficiency of encapsulation of a therapeutic and/or prophylactic describes the amount of therapeutic and/or prophylactic that is encapsulated or otherwise associated with a lipid nanoparticle (e.g., an empty LNP or a loaded LNP) after preparation, relative to the initial amount provided. The encapsulation efficiency is desired to be high (e.g., close to 100%). The encapsulation efficiency may be measured, for example, by comparing the amount of therapeutic and/or prophylactic in a solution containing a loaded LNP before and after breaking up the loaded LNP with one or more organic solvents or detergents. Fluorescence may be used to measure the amount of free therapeutic and/or prophylactic (e.g., RNA) in a solution. For the loaded LNPs formulated with lipids of the disclosure, the encapsulation efficiency of a therapeutic and/or prophylactic is at least 50%, for example 50%, 55%, 60%, 65%, 70%, 75%, 80%, 85%, 90%, 91%, 92%, 93%, 94%, 95%, 96%, 97%, 98%, 99%, or 100%. In some embodiments, the encapsulation efficiency is at least 80%. In some embodiments, the encapsulation efficiency is at least 90%. In some embodiments, the encapsulation efficiency of the therapeutic and/or prophylactic agent is between 80% and 100%.
(§1) Lipid nanoparticles (e.g., empty LNPs or loaded LNPs) including DSPC as a phospholipid, cholesterol as a structural lipid, PL-II (e.g., PEG-1) as a PEG lipid, and a lipid according to Formula (I-1), (I), (I-A), (I-A1), (I-A2), (I-A3), or (I-A4) were prepared. In some embodiments, the lipid nanoparticles further included rhodamine-DOPE as a fluorescent lipid. Tables 2a, 2b, and 3 summarize the characteristics of the formulations.

[3] = Particle size (diameter) and polydispersity index of lipid nanoparticles; assay type: physicochemical; conditions: nanoparticles comprising the lipid
Procedure: A Zetasizer Nano ZS (Malvern Instruments Ltd, Malvern, Worcestershire, UK) can be used to determine the particle size, the polydispersity index (PDI) and the zeta potential of the nanoparticle compositions in 1×PBS in determining particle size and 15 mM PBS in determining zeta potential.
Lipid nanoparticles (e.g., empty LNPs or loaded LNPs) may be characterized by a variety of methods. For example, microscopy (e.g., transmission electron microscopy or scanning electron microscopy) may be used to examine the morphology and size distribution of a nanoparticle composition. Dynamic light scattering or potentiometry (e.g., potentiometric titrations) may be used to measure zeta potentials. Dynamic light scattering may also be utilized to determine particle sizes. Instruments such as the Zetasizer Nano ZS (Malvern Instruments Ltd, Malvern, Worcestershire, UK) may also be used to measure multiple characteristics of a nanoparticle composition, such as particle size, polydispersity index, and zeta potential.
as §1

[4] = Apparent pKa of lipid nanoparticles; assay type: physicochemical; conditions: for Apparent pKa: Table 2a, nanoparticles comprising the lipid; for Apparent pKa 95% CI: Table 2b, 95% confidence interval
[5] = Table 2a, DSPC, cholesterol, PEG lipid

CCCCCC(CCCCC)CCOC(=O)CCCCCCCN(CCCCCCCC(=O)OCCC(CCCCC)CCCCC)CCCNc1n[s+]([O-])nc1NC (stereo not drawn) [Compound 22]
Avg. hEPO Concentration (mIU/mL) ± Avg. SD (CD-1 mice): 7.14E+06 ± 1.53E+05 mIU/mL | Lipid nanoparticle surface hydrophobicity (N-GP*) [1]: 1.03 | % EE ([2]; Table 2a): 95.6% | % EE ([2]; Table 3): 97.2% | PDI ([3]; Table 2a): 0.104 | Diameter (nm) [3, 5]: 78.3 nm | Diameter (nm) ([3]; Table 3): 83.4 nm | PDI ([3]; Table 3): 0.195 | Apparent pKa [4]: 6.895

CCCCCC(CCCCC)CCOC(=O)CCCCCCCN(CCCCCCCC(=O)OCCC(CCCCC)CCCCC)CCCNc1noc(N)n1 [Compound 23]
Avg. hEPO Concentration (mIU/mL)* ± Avg. SD (CD-1 mice): 1.17E+06 ± 1.91E+04 mIU/mL | LNP surface hydrophobicity (N-GP*) [1]: 0.95 | % EE ([2]; Table 2b): 98.1% | % EE ([2]; Table 3): 96.4% | Diameter (nm) ([3]; Table 2b): 87.2 nm | PDI ([3]; Table 2b): 0.181 | Diameter (nm) ([3]; Table 3): 62.7 nm | PDI ([3]; Table 3): 0.144 | Apparent pKa 95% CI [4]: 6.511 to 6.611

CCCCCC(CCCCC)CCOC(=O)CCCCCCCN(CCCCCCCC(=O)OCCC(CCCCC)CCCCC)CCCNS(=O)(=O)CCOC [Compound 24]
Avg. hEPO Concentration (mIU/mL) ± Avg. SD (CD-1 mice): 8.30E+06 ± 1.36E+05 mIU/mL | Lipid nanoparticle surface hydrophobicity (N-GP*) [1]: 1.05 | % EE ([2]; Table 2a): 82.9% | % EE ([2]; Table 3): 95.4% | PDI ([3]; Table 2a): 0.112 | Diameter (nm) [3, 5]: 87.9 nm | Diameter (nm) ([3]; Table 3): 93.8 nm | PDI ([3]; Table 3): 0.17 | Apparent pKa [4]: 6.725

CCCCCC(CCCCC)CCOC(=O)CCCCCCCN(CCCCCCCC(=O)OCCC(CCCCC)CCCCC)CCCNC(=O)C1(C)CC1 [Compound 25]
Avg. hEPO Concentration (mIU/mL)* ± Avg. SD (CD-1 mice): 5.13E+06 ± 9.33E+04 mIU/mL | LNP surface hydrophobicity (N-GP*) [1]: 0.98 | % EE ([2]; Table 2b): 26.4% | % EE ([2]; Table 3): 36.1% | Diameter (nm) ([3]; Table 2b): 163.9 nm | PDI ([3]; Table 2b): 0.22 | Diameter (nm) ([3]; Table 3): 89.3 nm | PDI ([3]; Table 3): 0.154 | Apparent pKa 95% CI [4]: 6.865 to 6.928

CCCCCC(CCCCC)CCOC(=O)CCCCCCCN(CCCCCCCC(=O)OCCC(CCCCC)CCCCC)CCCNS(=O)(=O)CC [Compound 26]
Avg. hEPO Concentration (mIU/mL) ± Avg. SD (CD-1 mice): 1.42E+07 ± 3.66E+05 mIU/mL | Lipid nanoparticle surface hydrophobicity (N-GP*) [1]: 1.09 | % EE ([2]; Table 2a): 86.3% | % EE ([2]; Table 3): 95.0% | PDI ([3]; Table 2a): 0.113 | Diameter (nm) [3, 5]: 84.8 nm | Diameter (nm) ([3]; Table 3): 94.5 nm | PDI ([3]; Table 3): 0.134 | Apparent pKa [4]: 6.645

CCCCCC(CCCCC)CCOC(=O)CCCCCCCN(CCCCCCCC(=O)OCCC(CCCCC)CCCCC)CCCNS(=O)(=O)Cc1ccon1 [Compound 27]
Avg. hEPO Concentration (mIU/mL)* ± Avg. SD (CD-1 mice): 2.12E+06 ± 7.18E+04 mIU/mL | LNP surface hydrophobicity (N-GP*) [1]: 1.00 | % EE ([2]; Table 2b): 78.2% | % EE ([2]; Table 3): 93.5% | Diameter (nm) ([3]; Table 2b): 87.8 nm | PDI ([3]; Table 2b): 0.178 | Diameter (nm) ([3]; Table 3): 66.9 nm | PDI ([3]; Table 3): 0.148 | Apparent pKa 95% CI [4]: 6.614 to 6.687

CCCCCC(CCCCC)CCOC(=O)CCCCCCCN(CCCCCCCC(=O)OCCC(CCCCC)CCCCC)CCCNc1ncccc1N [Compound 28]
Avg. hEPO Concentration (mIU/mL)* ± Avg. SD (CD-1 mice): 6.30E+05 ± 1.83E+04 mIU/mL | LNP surface hydrophobicity (N-GP*) [1]: 0.99 | % EE ([2]; Table 2b): 99.9% | % EE ([2]; Table 3): 99.5% | Diameter (nm) ([3]; Table 2b): 84.3 nm | PDI ([3]; Table 2b): 0.202 | Diameter (nm) ([3]; Table 3): 90.3 nm | PDI ([3]; Table 3): 0.161 | Apparent pKa 95% CI [4]: 6.545 to 6.670
